Measured values reported in PubChem BioAssay (NCI).
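Test compounds were applied to cells in 96-well plates for 48 hours at 5 doses. GI50 is the concentration that inhibits growth by half. TGI: concentration producing complete growth inhibition.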

Columns and labels:
Experiment in all cases: NCI tumour cell line growth inhibition, 48 h
[1] = system: EKVX NSCLC
[2] = system: OVCAR-4 ovarian
[3] = system: A549 NSCLC
[4] = system: SK-MEL-2 melanoma
[5] = system: HOP-62 NSCLC
[6] = system: 786-0 renal
[7] = system: T-47D breast
[8] = system: TK-10 renal
[9] = system: RXF 393 renal
[10] = system: SW-620 colon
[11] = system: SF-268 CNS
[12] = system: SN12C renal
[13] = system: LOX IMVI melanoma
[14] = system: UO-31 renal
[15] = system: PC-3 prostate
[16] = system: SK-MEL-28 melanoma
[17] = system: HOP-92 NSCLC
[18] = system: SF-539 CNS
[19] = system: HCT-116 colon
[20] = system: RPMI-8226 leukemia
[21] = system: CCRF-CEM leukemia
[22] = system: BT-549 breast
[23] = system: HCC-2998 colon
[24] = system: MCF7 breast
[25] = system: SR leukemia
[26] = system: CAKI-1 renal
[27] = system: OVCAR-5 ovarian
[28] = system: HT29 colon
[29] = system: NCI-H460 lung
[30] = system: U251 CNS
[31] = system: OVCAR-3 ovarian
[32] = system: NCI-H226 lung
[33] = system: SF-295 CNS
[34] = system: SK-MEL-5 melanoma
[35] = system: NCI-H23 lung
[36] = system: MDA-MB-231 breast
[37] = system: OVCAR-8 ovarian
[38] = system: SK-OV-3 ovarian
[39] = system: SNB-75 CNS
[40] = system: HS 578T breast
[41] = system: NCI/ADR-RES ovarian
[42] = system: KM12 colon
[43] = system: UACC-62 melanoma
[44] = system: DU-145 prostate
[45] = system: HL-60(TB) leukemia
[46] = system: COLO 205 colon
[47] = system: IGROV1 ovarian
[48] = system: NCI-H522 lung
[49] = system: HCT-15 colon
[50] = system: UACC-257 melanoma
[51] = system: SNB-19 CNS
[52] = system: M14 melanoma
[53] = system: A498 renal
[54] = system: K-562 leukemia
[55] = system: MOLT-4 leukemia
[56] = system: ACHN renal
[57] = system: MDA-MB-435
[58] = system: MALME-3M melanoma

COc1cccc2c1-c1c(c3ccc([N+](=O)[O-])cc3c(=O)n1CCCN)C2=O
GI50 [1]: 2170 nM | TGI [1]: 5.08 µM | GI50 [2]: 1550 nM | TGI [2]: 3.94 µM | GI50 [3]: 11 µM | TGI [3]: 34.4 µM | GI50 [4]: 1580 nM | TGI [4]: 3 µM | GI50 [5]: 1130 nM | TGI [5]: 2500 nM | GI50 [6]: 479 nM | TGI [6]: 987 nM | GI50 [7]: 1520 nM | TGI [7]: 3.63 µM | GI50 [8]: 2810 nM | TGI [8]: 13.2 µM | GI50 [9]: 24.1 µM | TGI [9]: > 78.8 µM | GI50 [10]: 459 nM | TGI [10]: 3.2 µM | GI50 [11]: 1150 nM | TGI [11]: 2940 nM | GI50 [12]: 3.23 µM | TGI [12]: 9.07 µM | GI50 [13]: 1200 nM | TGI [13]: 2640 nM | GI50 [14]: 1260 nM | TGI [14]: 2590 nM | GI50 [15]: 1430 nM | TGI [15]: 4.03 µM | GI50 [16]: 1860 nM | TGI [16]: 3.81 µM | GI50 [17]: 5.64 µM | TGI [17]: 13.3 µM | GI50 [18]: 1520 nM | TGI [18]: 3190 nM | GI50 [19]: 490 nM | TGI [19]: 2250 nM | GI50 [20]: 1650 nM | TGI [20]: 5.84 µM | GI50 [21]: 183 nM | TGI [21]: 4.76 µM | GI50 [22]: 1720 nM | TGI [22]: 3.61 µM | GI50 [23]: 3.02 µM | TGI [23]: 7 µM | GI50 [24]: 48.6 nM | TGI [24]: 1590 nM | GI50 [25]: 25.6 nM | TGI [25]: 379 nM | GI50 [26]: 15.1 µM | TGI [26]: 62.7 µM | GI50 [27]: 1880 nM | TGI [27]: 3.4 µM | GI50 [28]: 1240 nM | TGI [28]: 3.08 µM | GI50 [29]: 239 nM | TGI [29]: 1940 nM | GI50 [30]: 1020 nM | TGI [30]: 2230 nM | GI50 [31]: 2300 nM | TGI [31]: 5.71 µM | GI50 [32]: 7.67 µM | TGI [32]: 34.3 µM | GI50 [33]: 3.1 µM | TGI [33]: 14.8 µM | GI50 [34]: 1910 nM | TGI [34]: 7.38 µM | GI50 [35]: 1390 nM | TGI [35]: 3.01 µM | GI50 [36]: 1680 nM | TGI [36]: 3.41 µM | GI50 [37]: 1500 nM | TGI [37]: 5.66 µM | GI50 [38]: 11.5 µM | TGI [38]: 29.8 µM | GI50 [39]: 5.76 µM | TGI [39]: 25.1 µM | GI50 [40]: 7.62 µM | TGI [40]: 18.7 µM | GI50 [41]: 3.99 µM | TGI [41]: 19.1 µM | GI50 [42]: 2020 nM | TGI [42]: > 24100 nM | GI50 [43]: 1890 nM | TGI [43]: 7.95 µM | GI50 [44]: 1060 nM | TGI [44]: 6.15 µM | GI50 [45]: 1620 nM | TGI [45]: 3.93 µM | GI50 [46]: 1340 nM | TGI [46]: 3070 nM | GI50 [47]: 289 nM | TGI [47]: 1.99 µM | GI50 [48]: 43 nM | TGI [48]: 1890 nM | GI50 [49]: 1400 nM | TGI [49]: 3370 nM | GI50 [50]: 17.9 µM | TGI [50]: 44.4 µM | GI50 [51]: 1350 nM | TGI [51]: 2930 nM | GI50 [52]: 1540 nM | TGI [52]: 3000 nM | GI50 [53]: 15.7 µM | TGI [53]: 32.8 µM | GI50 [54]: 218 nM | TGI [54]: 1120 nM | GI50 [55]: 29.3 nM | TGI [55]: 340 nM | GI50 [56]: 884 nM | TGI [56]: 6.65 µM

COc1cc([C@@H]2c3cc4c(cc3[C@@H](Nc3ccccc3C(=O)c3ccccc3)[C@H]3COC(=O)[C@H]23)OCO4)cc(OC)c1OC
TGI [1]: > 100 µM | TGI [2]: > 100 µM | TGI [3]: > 100 µM | TGI [4]: > 100 µM | TGI [5]: > 100000 nM | TGI [6]: > 100000 nM | TGI [7]: > 100 µM | TGI [8]: > 100 µM | TGI [9]: > 100 µM | TGI [10]: > 81.6 µM | TGI [11]: > 100000 nM | TGI [12]: > 100 µM | TGI [13]: > 100000 nM | TGI [14]: > 100000 nM | TGI [15]: > 78.7 µM | TGI [16]: > 100 µM | TGI [18]: 638 nM | TGI [19]: > 100000 nM | TGI [57]: 1260 nM | TGI [58]: > 100 µM | TGI [21]: > 100 µM | TGI [22]: > 100 µM | TGI [23]: > 28.7 µM | TGI [24]: > 100000 nM | TGI [26]: > 100 µM | TGI [27]: > 100 µM | TGI [30]: 979 nM | TGI [31]: > 100 µM | TGI [32]: > 100 µM | TGI [33]: > 100 µM | TGI [34]: 2.93 µM | TGI [35]: > 100 µM | TGI [36]: > 66.1 µM | TGI [37]: > 38.3 µM | TGI [38]: > 100 µM | TGI [40]: > 100 µM | TGI [41]: > 100 µM | TGI [42]: 653 nM | TGI [44]: > 100 µM | TGI [46]: 1420 nM | TGI [47]: 90.5 µM | TGI [48]: 2070 nM | TGI [49]: 1180 nM | TGI [50]: > 100 µM | TGI [51]: > 100000 nM | TGI [52]: > 53700 nM | TGI [54]: > 100000 nM | TGI [55]: > 100000 nM | TGI [56]: > 100 µM
